# PMC11288129, “Diversely evolved xibalbin variants from remipede venom inhibit potassium channels and activate PKA-II and Erk1/2 signaling” (BMC Biology, 2024)
# Entries after “also recorded” stand apart in the source; their conditions may differ. Marks after values point to notes of the source that are not given here. Positions of bridges follow the written chain, without caps; N, C: chain ends. No end group written: not given here.
# Experiments:
# hCav3.3 = assay: TEVC inhibition, Cav3.3; type: cell-based, human; parameters: unit not given here; settings: 1 µM
# From the text: (§1) For the expression of Kv channels rat Kv1.1 (GenBank accession number: NM_173095 [88, 89]), rKv1.2 (NM_012970 [90, 91]), human Kv1.3 (NM_002232 [92, 93]), rKv1.4 (NM_012971 [94, 95]), rKv1.6 (NM_023954 [96, 97]), hKv2.1 (NM_004975 [98, 99]), hKv3.1 (NM_004976 [100, 101]), rKv4.2 (NM_031739 [102, 103]), hKv10.1 (NM_172362 [104, 105]), hERG1 [Kv11.1, (NM_000238 [106, 107])], and Shaker IR [from Drosophila melanogaster, (NM_167595 [108, 109])], Nav channels [rNav1.2 (NM_012647 [42, 110]), rNav1.4 (NM_013178 [111, 112]), hNav1.5 (NM_198056 [113, 114]), mNav1.6 (NM_001077499 [115, 116]), BgNav [from Blattella germanica, (DQ466887 [117, 118])] and the auxiliary subunits rβ1 (NM_001271045 [119, 120]), hβ1 (NM_001037 [121, 122]), and TipE [from D. melanogaster, (NM_079196 [109, 123])], and Cav channels hCav3.1 [124, 125], hCav3.2 [126, 127], and hCav3.3 [128, 129] in Xenopus oocytes, the linearized plasmids were transcribed using the T7 or SP6 mMESSAGEmMACHINE transcription kit (Ambion, Austin, TX, USA). Mature female animals were purchased from Nasco (Fort Atkinson, USA) and were housed in the Aquatic Facility (KU Leuven) in compliance with the regulations of the European Union (EU) concerning the welfare of laboratory animals as declared in Directive 2010/63/EU. The use of X. laevis oocytes was approved by the Animal Ethics Committee of the KU Leuven with the license number P186/2019. Stage V–VI oocytes were collected from anesthetized female X. laevis frog as previously described, with the frogs anesthetized by placement in 0.1% tricaine solution (amino benzoic acid ethyl ester; Merck, USA). Oocyte microinjection was performed using a microinjector (Drummond Scientifc®, USA), with a programmed cRNA injection volume of 4—50 nL, depending on the channel subtype. The oocytes were incubated in ND96 solution (96 mM NaCl, 2 mM KCl, 1.8 mM CaCl2, 2 mM MgCl2, and 5 mM HEPES, pH 7.4), supplemented with 50 mg/l gentamicin sulfate.
# (§2) Electrophysiological measurements were performed at room temperature (18–22 °C) using the two-electrode voltage clamp (TEVC) technique. Data were obtained using a GeneClamp 500 amplifier (Axon Instruments, USA), and Clampex9 software (Axon Instruments), responsible for data acquisition and storage. Glass micropipettes were produced using glass capillaries (borosilicate WPI 1B120-6) and drawn in a WPI (World Precision Instruments, USA) manual stretcher. The bath and perfusion solutions were either the previously described ND96 (Nav and Kv channels) or calcium-free ND96 supplemented with 10 mM BaCl2 (Cav channels).
# (§3) Whole-cell currents of oocytes were recorded 1 to 3 days after injection. Current and voltage electrodes were filled with 3 M KCl and their resistance was adjusted from 0.7 to 2.0 MΩ. Currents were sampled at 20 kHz (Nav channels) and 10 kHz (Kv and Cav channels) and filtered using a four-pole Bessel low-pass Bessel filter, at 1 kHz for sodium, and […] for potassium and calcium, except for the hERG ion channel, in which the currents were filtered at 1 kHz. Leak subtraction was performed using a -P/4 protocol. Kv1.x currents were evoked by 500 ms depolarizations to 0 mV followed by a 500-ms pulse to − 50 mV, from a holding potential of − 90 mV. Kv2.1, Kv3.1, and Kv4.2 currents were elicited by 500 ms pulses to + 20 mV from a holding potential of − 90 mV. Current traces of Kv10.1 were elicited by 2 s depolarization to 0 mV, from a holding potential of − 90 mV. Current traces of hERG1 channel were elicited by applying a + 40 mV prepulse for 2 s followed by a step of − 120 mV for 2 s. Sodium current traces were evoked by a 100 ms depolarization to 0 mV, from a holding potential of − 90 mV. The current–voltage (IV) relationships were determined by 100-ms step depolarizations between − 90 and + 40 mV, using 5 mV increments. […]
# hNav1.5 = assay: TEVC inhibition, Nav1.5; type: cell-based, human; settings: 1 µM, Xenopus oocytes, ND96, 18–22 °C, mean ± SEM, n ≥ 3
# From the text: (§4) For the expression of Kv channels rat Kv1.1 (GenBank accession number: NM_173095 [88, 89]), rKv1.2 (NM_012970 [90, 91]), human Kv1.3 (NM_002232 [92, 93]), rKv1.4 (NM_012971 [94, 95]), rKv1.6 (NM_023954 [96, 97]), hKv2.1 (NM_004975 [98, 99]), hKv3.1 (NM_004976 [100, 101]), rKv4.2 (NM_031739 [102, 103]), hKv10.1 (NM_172362 [104, 105]), hERG1 [Kv11.1, (NM_000238 [106, 107])], and Shaker IR [from Drosophila melanogaster, (NM_167595 [108, 109])], Nav channels [rNav1.2 (NM_012647 [42, 110]), rNav1.4 (NM_013178 [111, 112]), hNav1.5 (NM_198056 [113, 114]), mNav1.6 (NM_001077499 [115, 116]), BgNav [from Blattella germanica, (DQ466887 [117, 118])] and the auxiliary subunits rβ1 (NM_001271045 [119, 120]), hβ1 (NM_001037 [121, 122]), and TipE [from D. melanogaster, (NM_079196 [109, 123])], and Cav channels hCav3.1 [124, 125], hCav3.2 [126, 127], and hCav3.3 [128, 129] in Xenopus oocytes, the linearized plasmids were transcribed using the T7 or SP6 mMESSAGEmMACHINE transcription kit (Ambion, Austin, TX, USA). […]
# (§5) Whole-cell currents of oocytes were recorded 1 to 3 days after injection. […] The current–voltage (IV) relationships were determined by 100-ms step depolarizations between − 90 and + 40 mV, using 5 mV increments. […]
# rKv1.2 = assay: TEVC inhibition, Kv1.2; type: cell-based, rat; settings: 1 µM
# From the text: as §1, §2, §3
# rNav1.4 = assay: TEVC current-voltage relationship (Vhalf), Nav1.4; type: cell-based, rat; parameters: Vhalf, toxin inactivation, Nav1.4 / Vhalf, toxin activation, Nav1.4: unit not given here; settings: for Vhalf, toxin activation, Nav1.4 / Vhalf, toxin inactivation, Nav1.4: 1 µM
# From the text: as §1, §2, §3
# hKv10.1 = assay: TEVC inhibition, Kv10.1; type: cell-based, human; parameters: unit not given here; settings: 1 µM
# From the text: as §1, §2, §3
# rNav1.2 = assay: TEVC current-voltage relationship (Vhalf), Nav1.2; type: cell-based, rat; parameters: Vhalf, toxin inactivation, Nav1.2 / Vhalf, toxin activation, Nav1.2: unit not given here; settings: for Vhalf, toxin activation, Nav1.2 / Vhalf, toxin inactivation, Nav1.2: 1 µM
# From the text: as §1, §2, §3
# BgNav = assay: TEVC current-voltage relationship (Vhalf), BgNav; type: cell-based, Blattella germanica; parameters: Vhalf, toxin inactivation, BgNav / Vhalf, toxin activation, BgNav: unit not given here; settings: for Vhalf, toxin activation, BgNav / Vhalf, toxin inactivation, BgNav: 1 µM
# From the text: as §1, §2, §3
# [1] = test system: voltage-gated sodium channels (Nav); assay: TEVC on panel of voltage-gated sodium channels; type: cell-based; settings: 1 µM
# From the text: as §4, §5
Sequence,"Inhibition data, Cav3.3 (hCav3.3; replicate 1)","Inhibition data, Cav3.3 (hCav3.3; replicate 2)","Inhibition data, Cav3.3 (hCav3.3; replicate 3)","Inhibition data, Cav3.3 (hCav3.3; replicate 4)",inhibition of Nav1.5 (hNav1.5) [%],"Inhibition data, Kv1.2 (rKv1.2; replicate 1)","Inhibition data, Kv1.2 (rKv1.2; replicate 2)","Inhibition data, Kv1.2 (rKv1.2; replicate 3)","Vhalf, toxin activation, Nav1.4 (rNav1.4; replicate 1)","Vhalf, toxin inactivation, Nav1.4 (rNav1.4; replicate 1)","Vhalf, toxin activation, Nav1.4 (rNav1.4; replicate 2)","Vhalf, toxin inactivation, Nav1.4 (rNav1.4; replicate 2)","Vhalf, toxin activation, Nav1.4 (rNav1.4; replicate 3)","Vhalf, toxin inactivation, Nav1.4 (rNav1.4; replicate 3)","Inhibition data, Kv10.1 (hKv10.1; replicate 1)","Inhibition data, Kv10.1 (hKv10.1; replicate 2)","Inhibition data, Kv10.1 (hKv10.1; replicate 3)","Inhibition data, Kv10.1 (hKv10.1; replicate 4)","Vhalf, toxin activation, Nav1.2 (rNav1.2; replicate 1)","Vhalf, toxin inactivation, Nav1.2 (rNav1.2; replicate 1)",other results
"KRSCIRRFGRCDHRPNDCCYNSSCRCNLWGSNCRCQRMGLFQKWGK (disulfide 4-19, 11-24, 18-35, 26-33) [xib13]",0.0,0.0,0.0,0.0,28.2 ± 3.4,58.6,71.3,77.9,-16.1478,-45.0612,-15.8394,-52.747,-14.4257,-47.6866,0.0,0.0,0.0,0.0,-21.2222,-50.4402,"Vhalf activation shift, Nav1.4 (rNav1.4; 1 µM versus control (ND96)): 3.4 mV; Vhalf activation shift, Nav1.2 (rNav1.2; 1 µM versus control (ND96)): 1.5 mV; Vhalf, toxin activation, Nav1.2 (rNav1.2; replicate 2): -22.3496; Vhalf, toxin inactivation, Nav1.2 (rNav1.2; replicate 2): -54.6262; Vhalf, toxin activation, Nav1.2 (rNav1.2; replicate 3): -23.8888; Vhalf, toxin inactivation, Nav1.2 (rNav1.2; replicate 3): -52.3347; Vhalf, toxin activation, Nav1.2 (rNav1.2; replicate 4): -19.606; Vhalf, toxin inactivation, Nav1.2 (rNav1.2; replicate 4): -52.7049; Vhalf activation shift, BgNav (BgNav; 1 µM versus control (ND96)): 7.7*** mV; Vhalf inactivation shift, BgNav (BgNav; 1 µM versus control (ND96)): 0.2 mV; Vhalf, toxin activation, BgNav (BgNav; replicate 1): -17.0858; Vhalf, toxin inactivation, BgNav (BgNav; replicate 1): -50.0173; Vhalf, toxin activation, BgNav (BgNav; replicate 2): -22.9798; Vhalf, toxin inactivation, BgNav (BgNav; replicate 2): -54.2542; Vhalf, toxin activation, BgNav (BgNav; replicate 3): -20.8319; Vhalf, toxin inactivation, BgNav (BgNav; replicate 3): -48.9373; Vhalf, toxin activation, BgNav (BgNav; replicate 4): -18.4734; Vhalf, toxin inactivation, BgNav (BgNav; replicate 4): -48.3513; inhibition of voltage-gated sodium channels [1]: inhibit voltage-gated sodium channels; also recorded: mild inhibition; also recorded: most significant inhibition rates"
"RLFCIRHHKYCGHRPKRCCSGLFCRCNTFGTNCRCQSKGALGKLI (disulfide 4-19, 11-24, 18-35, 26-33) [xib1]",0.0,0.0,0.0,0.0,26.1 ± 1.8,52.8,47.6,48.2,-19.1826,-47.3987,-12.5775,-44.7262,-17.1419,-46.0496,0.0,0.0,0.0,0.0,-16.7542,-48.4729,"inhibition of Kv1.2 (rKv1.2; Xenopus oocytes, ND96, 18–22 °C, mean ± SEM, n ≥ 3): 50.2 ± 2.6%; Inhibition data, Kv1.2 (rKv1.2; replicate 4): 46.0; Vhalf, toxin activation, Nav1.2 (rNav1.2; replicate 2): -15.666; Vhalf, toxin inactivation, Nav1.2 (rNav1.2; replicate 2): -54.2238; Vhalf, toxin activation, Nav1.2 (rNav1.2; replicate 3): -21.743; Vhalf, toxin inactivation, Nav1.2 (rNav1.2; replicate 3): -57.3333; Vhalf, toxin activation, Nav1.2 (rNav1.2; replicate 4): -24.4632; Vhalf, toxin inactivation, Nav1.2 (rNav1.2; replicate 4): -61.3134; Vhalf activation shift, BgNav (BgNav; 1 µM versus control (ND96)): 2.1 mV; Vhalf, toxin activation, BgNav (BgNav; replicate 1): -20.8516; Vhalf, toxin inactivation, BgNav (BgNav; replicate 1): -45.0763; Vhalf, toxin activation, BgNav (BgNav; replicate 2): -24.1418; Vhalf, toxin inactivation, BgNav (BgNav; replicate 2): -46.3574; Vhalf, toxin activation, BgNav (BgNav; replicate 3): -27.3818; Vhalf, toxin inactivation, BgNav (BgNav; replicate 3): -51.0148; Vhalf, toxin activation, BgNav (BgNav; replicate 4): -26.78; inhibition of voltage-gated sodium channels [1]: inhibit voltage-gated sodium channels; also recorded: mild inhibition"
